Calls of active or inactive are those of the source.
Legend:
[1] = biological target: T1, Replicative DNA helicase DnaB (Mycobacterium tuberculosis, UniProt P9WMR3); experiment: DnaB intein splicing inhibitors, dose response, biochemical, cell-free fluorescence (AID 449749); format: functional
T1 sequence (P9WMR3 whole entry): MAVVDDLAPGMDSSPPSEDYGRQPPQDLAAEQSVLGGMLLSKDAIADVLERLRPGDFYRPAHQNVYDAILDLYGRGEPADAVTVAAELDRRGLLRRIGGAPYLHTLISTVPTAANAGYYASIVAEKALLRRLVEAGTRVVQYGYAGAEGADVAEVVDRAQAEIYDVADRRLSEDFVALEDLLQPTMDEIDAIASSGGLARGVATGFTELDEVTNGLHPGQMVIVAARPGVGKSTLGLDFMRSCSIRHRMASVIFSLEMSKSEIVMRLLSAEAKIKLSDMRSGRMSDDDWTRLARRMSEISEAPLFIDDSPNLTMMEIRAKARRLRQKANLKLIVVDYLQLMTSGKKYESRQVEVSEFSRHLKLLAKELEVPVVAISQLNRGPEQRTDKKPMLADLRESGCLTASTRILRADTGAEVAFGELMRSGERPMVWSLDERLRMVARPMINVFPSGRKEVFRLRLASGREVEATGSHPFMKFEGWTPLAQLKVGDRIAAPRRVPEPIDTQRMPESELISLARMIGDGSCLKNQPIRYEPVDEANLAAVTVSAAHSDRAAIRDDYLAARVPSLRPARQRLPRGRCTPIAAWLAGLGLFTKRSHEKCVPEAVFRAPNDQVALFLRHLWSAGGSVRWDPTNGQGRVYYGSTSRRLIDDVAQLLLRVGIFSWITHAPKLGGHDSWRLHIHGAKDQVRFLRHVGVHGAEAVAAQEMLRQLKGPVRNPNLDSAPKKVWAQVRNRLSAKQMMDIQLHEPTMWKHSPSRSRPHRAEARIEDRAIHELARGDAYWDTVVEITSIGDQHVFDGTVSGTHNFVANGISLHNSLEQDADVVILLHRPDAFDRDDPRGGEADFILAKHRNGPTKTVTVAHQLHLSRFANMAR

[2] = biological target: T2, Protein RecA (Mycobacterium tuberculosis, UniProt P9WHJ3); experiment: Fluorescence Cell-Free Homogeneous Dose Retest to Identify Inhibitors of RecA-Intein Splicing Activity. [Related pubchem assays (depositor defined):AID2097, AID2223, AID489010, AID492950]; format: functional
T2 sequence (P9WHJ3 whole entry): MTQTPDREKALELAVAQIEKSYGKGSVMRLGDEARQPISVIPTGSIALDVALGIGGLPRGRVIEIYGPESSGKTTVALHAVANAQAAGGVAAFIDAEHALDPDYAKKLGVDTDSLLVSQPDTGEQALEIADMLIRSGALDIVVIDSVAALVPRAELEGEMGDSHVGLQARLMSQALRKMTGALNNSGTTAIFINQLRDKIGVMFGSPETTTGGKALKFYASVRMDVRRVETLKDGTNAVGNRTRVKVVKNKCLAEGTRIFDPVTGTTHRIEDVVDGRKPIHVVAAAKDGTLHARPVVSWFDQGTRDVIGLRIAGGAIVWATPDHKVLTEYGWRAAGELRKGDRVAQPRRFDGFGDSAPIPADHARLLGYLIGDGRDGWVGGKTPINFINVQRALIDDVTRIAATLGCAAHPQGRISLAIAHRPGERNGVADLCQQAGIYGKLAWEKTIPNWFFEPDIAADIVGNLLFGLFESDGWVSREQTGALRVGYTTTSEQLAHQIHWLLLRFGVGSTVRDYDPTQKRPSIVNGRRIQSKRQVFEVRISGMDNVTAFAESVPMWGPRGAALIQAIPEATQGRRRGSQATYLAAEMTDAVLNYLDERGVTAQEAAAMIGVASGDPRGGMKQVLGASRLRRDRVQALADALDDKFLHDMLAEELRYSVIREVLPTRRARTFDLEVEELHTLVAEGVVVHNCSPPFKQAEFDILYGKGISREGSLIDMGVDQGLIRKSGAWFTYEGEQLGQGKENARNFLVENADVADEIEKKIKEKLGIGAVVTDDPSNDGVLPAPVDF

[3] = biological target: Cytochrome P450 2C9 (Homo sapiens, UniProt P11712)
Chain of Cytochrome P450 2C9 (P11712 whole entry): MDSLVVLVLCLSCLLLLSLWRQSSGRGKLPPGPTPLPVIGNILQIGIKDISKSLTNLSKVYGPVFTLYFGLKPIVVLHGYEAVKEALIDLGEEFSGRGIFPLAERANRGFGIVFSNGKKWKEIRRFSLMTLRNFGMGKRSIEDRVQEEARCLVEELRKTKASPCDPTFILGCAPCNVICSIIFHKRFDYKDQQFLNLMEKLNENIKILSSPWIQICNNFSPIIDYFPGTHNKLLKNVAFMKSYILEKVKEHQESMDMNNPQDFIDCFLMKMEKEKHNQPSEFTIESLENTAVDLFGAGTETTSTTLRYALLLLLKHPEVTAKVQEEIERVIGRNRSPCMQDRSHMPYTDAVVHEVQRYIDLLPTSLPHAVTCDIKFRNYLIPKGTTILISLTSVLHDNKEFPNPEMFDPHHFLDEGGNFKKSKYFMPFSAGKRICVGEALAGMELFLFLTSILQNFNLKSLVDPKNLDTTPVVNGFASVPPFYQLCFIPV

[4] = biological target: T3, Cytochrome P450 1A2 (Homo sapiens, UniProt P05177);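 also: PubChem cytochrome P450 panel assay, CYP1A2 panel member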
T3 sequence (P05177 whole entry): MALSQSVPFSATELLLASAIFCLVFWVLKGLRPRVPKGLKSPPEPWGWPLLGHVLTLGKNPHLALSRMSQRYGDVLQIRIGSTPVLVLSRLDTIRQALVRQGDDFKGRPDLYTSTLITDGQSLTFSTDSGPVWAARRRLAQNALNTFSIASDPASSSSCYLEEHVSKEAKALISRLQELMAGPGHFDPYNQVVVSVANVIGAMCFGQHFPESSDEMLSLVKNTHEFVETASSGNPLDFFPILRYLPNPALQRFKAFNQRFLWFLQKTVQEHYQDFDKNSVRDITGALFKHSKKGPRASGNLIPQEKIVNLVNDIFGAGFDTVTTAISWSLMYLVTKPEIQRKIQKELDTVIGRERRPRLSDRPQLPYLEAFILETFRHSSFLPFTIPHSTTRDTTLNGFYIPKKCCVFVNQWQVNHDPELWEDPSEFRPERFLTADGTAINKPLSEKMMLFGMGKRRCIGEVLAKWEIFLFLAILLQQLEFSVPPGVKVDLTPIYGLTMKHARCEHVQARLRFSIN

[5] = biological target: T4, Protein skinhead-1 (Caenorhabditis elegans, UniProt P34707); format: functional
T4 sequence (P34707 whole entry): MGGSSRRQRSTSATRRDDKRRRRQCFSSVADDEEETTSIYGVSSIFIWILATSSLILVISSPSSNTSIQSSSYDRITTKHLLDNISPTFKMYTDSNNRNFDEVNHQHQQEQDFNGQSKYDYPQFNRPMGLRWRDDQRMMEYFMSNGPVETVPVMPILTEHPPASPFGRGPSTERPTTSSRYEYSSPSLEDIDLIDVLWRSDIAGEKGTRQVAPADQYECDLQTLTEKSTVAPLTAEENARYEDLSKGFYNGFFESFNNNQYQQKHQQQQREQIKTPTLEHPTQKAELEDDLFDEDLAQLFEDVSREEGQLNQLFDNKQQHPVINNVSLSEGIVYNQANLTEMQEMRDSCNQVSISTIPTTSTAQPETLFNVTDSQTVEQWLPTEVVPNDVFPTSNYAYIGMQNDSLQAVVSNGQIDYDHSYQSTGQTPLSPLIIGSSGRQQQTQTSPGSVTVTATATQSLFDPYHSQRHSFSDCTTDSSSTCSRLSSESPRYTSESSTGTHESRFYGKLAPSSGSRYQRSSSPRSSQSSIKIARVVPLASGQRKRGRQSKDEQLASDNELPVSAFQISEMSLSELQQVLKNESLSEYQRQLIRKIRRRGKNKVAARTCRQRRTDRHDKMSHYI

[6] = biological target: T5, Corticotropin-releasing factor receptor 2/Corticotropin-releasing factor-binding protein (Homo sapiens, UniProt P24387+Q13324); experiment: activators of CRF receptor 2 with binding protein – uHTS hits, confirmation (AID 602473); format: functional; conditions: read-out: EC50_Mean
T5 sequence (Q13324 whole entry): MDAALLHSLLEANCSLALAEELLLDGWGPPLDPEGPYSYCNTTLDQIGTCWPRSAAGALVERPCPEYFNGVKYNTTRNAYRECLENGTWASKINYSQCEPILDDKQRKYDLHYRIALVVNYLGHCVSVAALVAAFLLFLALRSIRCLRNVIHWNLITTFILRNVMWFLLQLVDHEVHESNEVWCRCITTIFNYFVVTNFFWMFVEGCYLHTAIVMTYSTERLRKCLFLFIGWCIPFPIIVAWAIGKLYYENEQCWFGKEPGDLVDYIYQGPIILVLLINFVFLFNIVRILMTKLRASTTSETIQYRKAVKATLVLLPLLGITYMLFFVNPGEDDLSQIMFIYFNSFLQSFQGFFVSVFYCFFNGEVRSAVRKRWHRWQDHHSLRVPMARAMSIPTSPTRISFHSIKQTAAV
T5 sequence (P24387 whole entry): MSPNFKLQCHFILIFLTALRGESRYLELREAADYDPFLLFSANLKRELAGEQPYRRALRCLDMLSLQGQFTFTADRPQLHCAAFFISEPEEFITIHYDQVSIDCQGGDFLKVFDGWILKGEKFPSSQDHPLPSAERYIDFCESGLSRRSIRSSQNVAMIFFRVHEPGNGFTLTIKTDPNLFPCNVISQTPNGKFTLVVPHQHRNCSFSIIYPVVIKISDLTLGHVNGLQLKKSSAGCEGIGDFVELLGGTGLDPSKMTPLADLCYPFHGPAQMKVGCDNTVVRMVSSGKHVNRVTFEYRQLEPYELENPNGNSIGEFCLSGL

[7] = biological target: Cytochrome P450 2D6 (Homo sapiens, UniProt P10635);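 also: CYP2D6 member of a cytochrome P450 panel assay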
Chain of Cytochrome P450 2D6 (P10635 whole entry): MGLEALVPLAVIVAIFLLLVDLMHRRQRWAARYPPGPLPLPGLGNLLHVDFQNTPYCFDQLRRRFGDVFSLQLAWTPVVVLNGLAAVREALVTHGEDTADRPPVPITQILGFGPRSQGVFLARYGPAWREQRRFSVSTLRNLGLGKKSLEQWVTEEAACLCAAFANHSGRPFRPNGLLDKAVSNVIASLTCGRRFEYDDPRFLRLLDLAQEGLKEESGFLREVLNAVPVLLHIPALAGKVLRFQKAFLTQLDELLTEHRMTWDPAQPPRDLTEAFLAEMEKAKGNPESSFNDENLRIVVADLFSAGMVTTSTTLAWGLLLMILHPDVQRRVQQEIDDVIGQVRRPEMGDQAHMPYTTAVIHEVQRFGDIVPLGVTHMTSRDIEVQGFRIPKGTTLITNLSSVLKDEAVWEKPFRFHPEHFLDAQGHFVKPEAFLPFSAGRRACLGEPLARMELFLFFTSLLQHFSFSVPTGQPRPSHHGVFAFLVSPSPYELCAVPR

ClCc1nnc(-c2cc3c(s2)CCCC3)o1
AC50 [1]: 10.7 µM (active)
EC50 [2]: 3.55 µM (active)

CN1CCN(c2ncc3nc(-c4cccc(C#N)c4)c(=O)n(C)c3n2)CC1
AC50 [3]: 39.8 µM (inconclusive)
AC50 [4]: 12.6 µM (inconclusive)

NCCCCCCCCCCNS(=O)(=O)c1cccc2c(Cl)cccc12
AC50 [4]: 15.8 µM (inconclusive)

Cc1n[nH]c2c1C1(CCN(C(=O)c3ccccc3)CC1)C(C#N)=C(N)O2
AC50 [1]: 7.89 µM (active)
EC50 [2]: 1.3 µM (active)

Oc1cc(-c2ccccc2)n[nH]1
AC50 [1]: 1.43 µM (active)
EC50 [2]: 0.517 µM (active)

CCOc1cc(NC(=O)c2ccco2)c(OCC)cc1NC(=O)CCc1ccccc1OC
IC50 [5]: > 100 µM (inactive)

Cc1noc(C)c1-c1ccc2ncnc(N3CCC(C(=O)O)CC3)c2c1
AC50 [4]: 25.1 µM (inconclusive)

Nc1nc(-c2ccc(-c3ccccc3)cc2)cs1
IC50 [5]: > 100 µM (inactive)

COc1cc(/C=C2/C(=O)N(c3ccc(Br)cc3)N=C2C)cc(OC)c1OC
AC50 [1]: 4.08 µM (active)
EC50 [2]: 12.4 µM (active)

Nc1nc(-c2ccc(Oc3ccccc3)cc2)cs1
IC50 [5]: 98.1 µM (inactive)

Cn1nc(C(=O)N2CCN(S(=O)(=O)c3ccccc3)CC2)c2ccccc2c1=O
IC50 [5]: > 100 µM (inactive)

CCCCN(C(=O)c1cccc2c(=O)c(C)c(-c3ccccc3)oc12)c1ccccc1
AC50 [1]: 4.15 µM (active)
EC50 [2]: 15.2 µM (active)

CCCc1n[nH]c2c1C(c1ccc(OC)cc1OC)C(C#N)=C(N)O2 (configuration not stated)
AC50 [1]: 6.28 µM (active)
EC50 [2]: 4.07 µM (active)

Cc1cc2ccccc2n1CCNC(=O)c1ccc(S(=O)(=O)N2CCOCC2)cc1
IC50 [5]: > 100 µM (inactive)

COc1ccc(-c2ccc(C3C(C#N)=C(N)Oc4[nH]nc(C)c43)o2)cc1 (configuration not stated)
EC50 [6]: 10.1 µM (active)

COc1ccccc1C(=O)Nc1ccc(Br)cc1C
IC50 [5]: > 100 µM (inactive)

CCCC(C(=O)NCC1CCCO1)N(Cc1ccccc1)C(=O)CNS(=O)(=O)c1ccccc1 (configuration not stated)
IC50 [5]: > 100 µM (inactive)

O=[N+]([O-])c1ccc2cn(-c3ccccc3)nc2c1
IC50 [5]: 54.4 µM (inactive)

Cc1ccc(CN2CC34C=CC(O3)C(C(=O)NCc3ccc5c(c3)OCO5)C4C2=O)cc1 (configuration not stated)
AC50 [3]: 12.6 µM (inconclusive)
AC50 [4]: 17.8 µM (inconclusive)

CCOC(=O)c1ccc(CC2S/C(=C(\C#N)C(C)=O)NC2=O)cc1 (configuration not stated)
AC50 [1]: > 380 µM (inactive)
EC50 [2]: > 380 µM (inactive)

COc1ccc(C2C(C#N)=C(N)Oc3[nH]nc(C)c32)cc1CN1CCN(c2ccc(F)cc2)CC1 (configuration not stated)
AC50 [3]: 35.5 µM (inconclusive)
AC50 [1]: 10.3 µM (active)
EC50 [2]: 6.55 µM (active)
AC50 [7]: 25.1 µM (inconclusive)

COc1cc2c(cc1OC)C(C(=O)Nc1ccccn1)C(c1cccnc1)N(C)C2=O (configuration not stated)
AC50 [3]: 11.2 µM (inconclusive)
AC50 [4]: 25.1 µM (inconclusive)

O=C(C=Cc1ccccc1)c1cc(Br)ccc1O
IC50 [5]: > 100 µM (inactive)

O=C=Nc1ccc(Cc2ccc(N=C=O)cc2)cc1.O=c1oc(=O)c2cc3c(=O)oc(=O)c3cc12
AC50 [4]: 5.01 µM (inconclusive)

CC1(c2ccc(Cl)cc2)NC(=O)N(CN2CCOCC2)C1=O (configuration not stated)
IC50 [5]: > 100 µM (inactive)

Cc1cc(N2CCOCC2)nc(N)n1
EC50 [6]: 10.4 µM (active)

N#C/C(=C/c1ccc(-c2ccc([N+](=O)[O-])cc2)o1)c1nnc(N2CCOCC2)n1-c1ccccc1
EC50 [6]: 11 µM (active)

CCN(CC(=O)Nc1ccccc1C(F)(F)F)C(=O)C1CC(=O)N(Cc2ccccc2)C1 (configuration not stated)
IC50 [5]: > 100 µM (inactive)

CCOC(=O)c1c(/N=C/C2C(=O)NC(=S)NC2=O)sc2c1CCC2
EC50 [6]: > 53 µM (inactive)

Cc1ccccc1CNC(=O)c1ccc2sc([C@H]3C[C@H](O)[C@@H](CO)O3)nc2c1
IC50 [5]: > 100 µM (inactive)

COc1ccccc1N1CCN(CCCCN2C(=O)CCC2=O)CC1
AC50 [4]: 39.8 µM (inconclusive)

CCOC(=O)/C=c1\s/c(=C(\C#N)C(N)=O)n(-c2ccccc2)c1=O
AC50 [1]: 9.68 µM (active)
EC50 [2]: > 380 µM (inconclusive)

Cc1cc(CC(=O)O)n(C)c1C(=O)c1ccc(Cl)cc1 [ZOMEPIRAC SODIUM]
AC50 [4]: 12.6 µM (inconclusive)

— ChEMBL document CHEMBL1201862, “PubChem BioAssay data set” (2004)
